Where two headings read alike, the source gives them in different places.
What was measured:
MCF-10A neoT cells = assay: MTS cell viability assay; conditions: 24 h, concentrations used to monitor ECM degradation
Experimental: The cells were seeded at 6 × 10^4 cells/well into a 96-well microplate and incubated overnight for attachment. The cells were then treated with the inhibitor (at 1, 2.5, or 5 μM) or DMSO (0.1%) in 100 μL for 24 h. After incubation, 10 μL of the reagent MTS was added to the wells, and the absorbance of formazan was measured at 492 nm on a Tecan Infinite M1000 instrument (Mannedorf, Switzerland). Cell viability (%) was expressed as the ratio between absorbance in the presence of the compounds and that in the presence of DMSO. All assays were performed in quadruplicate and repeated twice.

[1] = 10 mM HEPES pH 7.4, 25.0 °C
Experimental: Distribution coefficients (D 7.4) were determined using n-octanol/buffered aqueous solution (10 mM HEPES, pH = 7.4) partitioning (Table ).
The traditional shake-flask method was used to obtain the distribution coefficient of the complex in n-octanol/buffered aqueous solution (10 mM HEPES, pH = 7.4) using UV–vis spectrophotometry. The measurements and data evaluation were performed as in our previous work.

For `N#Cc1ccccc1.[C-]#[O+].[C-]#[O+].[C-]#[O+].[O-]n1ccccc1=S.[Re+]` [complex 4, fac-[Re(CO)3(pth)(benzonitrile)]], the “effect on viability of MCF-10A neoT cells” value (MCF-10A neoT cells) was “did not impair the viability”, the “log D7.4” value ([1]; c(Cl–) 0 mM) was “+1.61 ± 0.18” and the “log D7.4” value ([1]; c(Cl–) 4 mM) was “+1.67 ± 0.14”. The “log D7.4” value ([1]; c(Cl–) 24 mM) was “+1.71 ± 0.13” and the “log D7.4” value ([1]; c(Cl–) 100 mM) was “+1.71 ± 0.14”.

From paper PMC12391994, “Synthesis of a fac-Tricarbonylrhenium(I) Complex with Pyrithione, Its Physicochemical Characterization, and Assessment of Biological Effects” (ACS Omega, 2025)
